The record followed here is ChEMBL document CHEMBL2074517, “Bile acid inhibition of P-glycoprotein-mediated transport in multidrug-resistant cells and rat liver canalicular membrane vesicles” (Hepatology, 1994).

Common to all, as to design: scale not given: the % may be the effect or the level left
The target in series [1] is Multidrug resistance protein 1a (Rattus norvegicus) (UniProt Q6PSM0). Briefly: TP_TRANSPORTER: inhibition of Daunomycin uptake (Daunorubicin: 10 uM, UDCA: 200 uM) in canalicular membrane vesicles from SD rat. In kind it is functional, cell membranes. As to conditions: Sprague-Dawley, Canalicular membrane vesicle.
Series [2] has as its target ATP-dependent translocase ABCB1 (Homo sapiens, UniProt P08183). Briefly: TP_TRANSPORTER: inhibition of Rhodamine 123 efflux (R123: 5 ug/mL, TCDC: 200 uM) in P1(0.5) cells. In kind it is functional, cell-based.
For series [3], the target named is Multidrug resistance protein 1a (Rattus norvegicus) (UniProt Q6PSM0). Description: TP_TRANSPORTER: inhibition of Daunomycin uptake (Daunorubicin: 10 uM, TCDC: 200 uM) in canalicular membrane vesicles from SD rat. In kind it is functional, cell membranes. As to conditions: Sprague-Dawley, Canalicular membrane vesicle.
Series [4] deals with ATP-dependent translocase ABCB1 (P-glycoprotein) (Homo sapiens, UniProt P08183). Briefly: TP_TRANSPORTER: inhibition of Rhodamine 123 efflux (R123: 5 ug/mL, TLCA: 200 uM) in P1(0.5) cells. In kind it is functional, cell-based. As to conditions: probe Rhodamine 123, read-out: Activity.
Series [5] concerns the target Multidrug resistance protein 1a (Rattus norvegicus) (UniProt Q6PSM0). Briefly: TP_TRANSPORTER: inhibition of Daunomycin uptake (Daunorubicin: 10 uM, TLCA: 200 uM) in canalicular membrane vesicles from SD rat. In kind it is functional, cell membranes. As to conditions: Sprague-Dawley, Canalicular membrane vesicle.

Multidrug resistance protein 1a (Rattus norvegicus), sequence (Q6PSM0 as listed by the source): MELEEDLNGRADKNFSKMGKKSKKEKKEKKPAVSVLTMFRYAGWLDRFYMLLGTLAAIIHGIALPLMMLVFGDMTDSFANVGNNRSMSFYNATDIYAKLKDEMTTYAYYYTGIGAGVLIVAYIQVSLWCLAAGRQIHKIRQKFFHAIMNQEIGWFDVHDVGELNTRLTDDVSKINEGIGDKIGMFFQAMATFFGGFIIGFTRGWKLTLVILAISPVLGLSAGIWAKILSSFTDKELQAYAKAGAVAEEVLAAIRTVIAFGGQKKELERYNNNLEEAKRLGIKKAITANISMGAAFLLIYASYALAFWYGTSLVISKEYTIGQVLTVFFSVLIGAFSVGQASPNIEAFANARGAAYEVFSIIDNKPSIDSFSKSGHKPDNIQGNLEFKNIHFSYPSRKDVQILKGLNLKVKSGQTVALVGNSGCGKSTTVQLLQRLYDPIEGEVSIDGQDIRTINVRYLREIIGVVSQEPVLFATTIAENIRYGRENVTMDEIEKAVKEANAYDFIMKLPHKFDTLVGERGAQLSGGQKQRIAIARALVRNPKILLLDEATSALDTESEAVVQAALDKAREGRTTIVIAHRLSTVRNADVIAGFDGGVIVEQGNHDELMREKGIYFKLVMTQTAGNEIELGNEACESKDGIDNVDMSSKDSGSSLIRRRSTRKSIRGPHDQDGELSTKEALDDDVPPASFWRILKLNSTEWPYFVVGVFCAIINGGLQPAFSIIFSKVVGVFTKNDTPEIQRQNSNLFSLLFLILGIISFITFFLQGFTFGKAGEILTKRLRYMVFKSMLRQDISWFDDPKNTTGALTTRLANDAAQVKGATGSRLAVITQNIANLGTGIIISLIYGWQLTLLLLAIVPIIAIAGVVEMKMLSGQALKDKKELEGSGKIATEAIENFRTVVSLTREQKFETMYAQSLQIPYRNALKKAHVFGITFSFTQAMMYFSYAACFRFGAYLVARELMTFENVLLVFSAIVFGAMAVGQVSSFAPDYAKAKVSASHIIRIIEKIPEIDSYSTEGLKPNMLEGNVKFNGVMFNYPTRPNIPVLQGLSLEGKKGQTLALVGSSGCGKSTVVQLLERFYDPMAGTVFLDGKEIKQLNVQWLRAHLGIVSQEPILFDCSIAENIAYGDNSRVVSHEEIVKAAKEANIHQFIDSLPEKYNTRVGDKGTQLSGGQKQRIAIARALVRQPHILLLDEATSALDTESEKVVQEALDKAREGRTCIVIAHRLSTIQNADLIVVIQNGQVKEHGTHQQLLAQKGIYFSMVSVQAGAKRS
ATP-dependent translocase ABCB1, sequence (P08183 whole entry): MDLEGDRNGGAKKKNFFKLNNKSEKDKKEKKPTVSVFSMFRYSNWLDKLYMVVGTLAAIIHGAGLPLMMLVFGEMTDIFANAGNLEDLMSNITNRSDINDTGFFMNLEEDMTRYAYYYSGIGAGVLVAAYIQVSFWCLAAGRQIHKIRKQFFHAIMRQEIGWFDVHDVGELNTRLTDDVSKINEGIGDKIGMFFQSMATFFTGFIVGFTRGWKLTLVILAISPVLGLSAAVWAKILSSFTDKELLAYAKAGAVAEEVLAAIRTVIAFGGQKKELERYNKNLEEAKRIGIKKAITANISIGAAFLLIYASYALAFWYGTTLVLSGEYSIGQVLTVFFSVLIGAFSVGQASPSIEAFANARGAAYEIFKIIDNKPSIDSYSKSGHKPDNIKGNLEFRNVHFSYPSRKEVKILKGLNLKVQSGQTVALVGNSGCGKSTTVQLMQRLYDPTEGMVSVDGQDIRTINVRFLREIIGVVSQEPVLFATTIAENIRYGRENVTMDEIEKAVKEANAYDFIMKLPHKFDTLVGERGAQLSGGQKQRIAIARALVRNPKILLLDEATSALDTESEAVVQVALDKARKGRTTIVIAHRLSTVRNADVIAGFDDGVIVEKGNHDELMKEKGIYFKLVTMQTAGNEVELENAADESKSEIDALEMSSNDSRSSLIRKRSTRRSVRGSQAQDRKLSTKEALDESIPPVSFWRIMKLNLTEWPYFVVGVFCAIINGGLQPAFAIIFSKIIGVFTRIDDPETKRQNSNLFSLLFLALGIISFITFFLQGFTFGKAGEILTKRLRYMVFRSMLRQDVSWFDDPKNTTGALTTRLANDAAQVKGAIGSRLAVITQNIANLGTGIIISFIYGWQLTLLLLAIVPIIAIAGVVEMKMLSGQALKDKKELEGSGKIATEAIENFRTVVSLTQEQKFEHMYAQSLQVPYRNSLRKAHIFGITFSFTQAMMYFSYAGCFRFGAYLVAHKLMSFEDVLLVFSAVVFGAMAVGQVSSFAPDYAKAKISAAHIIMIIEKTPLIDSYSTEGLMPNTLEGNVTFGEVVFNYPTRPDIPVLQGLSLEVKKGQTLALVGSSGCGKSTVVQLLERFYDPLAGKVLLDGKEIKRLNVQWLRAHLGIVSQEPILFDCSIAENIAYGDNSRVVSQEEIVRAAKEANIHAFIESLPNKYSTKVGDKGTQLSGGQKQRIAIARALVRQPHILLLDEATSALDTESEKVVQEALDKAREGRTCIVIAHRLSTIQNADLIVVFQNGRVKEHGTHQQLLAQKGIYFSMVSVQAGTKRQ
ATP-dependent translocase ABCB1 (P-glycoprotein), sequence (P08183 whole entry): as above

Consider `C[C@H](CCC(=O)O)[C@H]1CC[C@H]2[C@@H]3[C@@H](O)C[C@@H]4C[C@H](O)CC[C@]4(C)[C@H]3CC[C@]12C`, for which the Activity in series [1] is 39%. In the case of `C[C@H](CCC(=O)NCCS(=O)(=O)O)[C@H]1CC[C@H]2[C@@H]3[C@H](O)C[C@@H]4C[C@H](O)CC[C@]4(C)[C@H]3CC[C@]12C` [TAUROCHENODEOXYCHOLATE], the Activity in series [2] was 66%; in series [3], 33%. For the molecule `C[C@H](CCC(=O)NCCS(=O)(=O)O)[C@H]1CC[C@H]2[C@@H]3CC[C@@H]4C[C@H](O)CC[C@]4(C)[C@H]3CC[C@]12C` [TAUROLITHOCHOLIC ACID], in series [4], the activity at 200 µM turned out to be 40%. In series [5], the Activity was 16%.
